From the NIST ThermoML archive (doi:10.1021/je0603067)
Numbers after ± are expanded uncertainties.

Conditions: Crystal; Heating/Cooling curves

Triple point temperature	Structure (SMILES)
216.56 ± 0.2 K	O=C=O [carbon dioxide]
181.99 ± 0.2 K	[N-]=[N+]=O [nitrous oxide]

Structure (SMILES)	Triple point temperature
FC(F)C(F)(F)F [pentafluoroethane]	173.05 ± 0.2 K
